Drawing on patent publication US12594276B2, “Inhibitors of human immunodeficiency virus replication” (ViiV Healthcare UK (No.5) Limited, priority 2024, dated 2026), this text covers CC50 and EC50 for 12 compounds.

Data set [1] is described as follows: Compound cytotoxicity, XTT-based colorimetric assay. Type of data set: cell-based. The following applies: human; uninfected MT2 cells, day 4, XTT; read-out: CC50. Summed up: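 Uninfected MT2 cells, antiviral-assay protocol without virus; XTT colorimetric readout day 4; CC50 reported.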
In general terms: Formazan colour is commonly taken as a measure of viable cells.

For data set [2], the system named is recombinant NL4-3 virus (nef section replaced with Renilla luciferase gene) in MT-2 cells. The data set is described as follows: HIV cell culture assay (antiviral activity, luciferase readout). Type of data set: cell-based. To be noted: Renilla, NL43, MT-2 cells infected for 4-5 days with recombinant NL4-3 Renilla luciferase virus. Summed up: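 Antiviral EC50 derived from luciferase signal using the exponential median effect equation. Infection of MT-2 cells ran 4-5 days alongside serial dilutions of compound, with virus generated by proviral clone transfection of 293T cells.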

`Cc1cc(C2CCC(F)(F)CC2)nc2nc([C@H](Cc3cc(F)cc(F)c3)NC(=O)Cn3nc(C4CC4)c4c3C[C@@H]3C[C@H]43)n(-c3ccc(Cl)c4c(NS(C)(=O)=O)nn([C@@H](C)CN5CC(C)(C)OC(C)(C)C5)c34)c(=O)c12` (relative stereo) [Example 724, N-[(1S)-1-[(3P)-3-{4-chloro-3-methanesulfonamido-1-[(2S)-1-(2,2,6,6-tetramethylmorpholin-4-yl)propan-2-yl]-1H-indazol-7-yl}-7-(4,4-difluorocyclohexyl)-5-methyl-4-oxo-3H,4H-pyrido[2,3-d]pyrimidin-2-yl]-2-(3,5-difluorophenyl)ethyl]-2-[(2R*,4R*)-9-cyclopropyl-7,8-diazatricyclo[4.3.0.0^2,^4]nona-1(6),8-dien-7-yl]acetamide]: in data set [1], the CC50 at 4 days is above 20 nM. In data set [2], the 50% effective concentration (EC50) was 0.036 nM.
On to `Cc1cc(C2(F)CCC(F)(F)CC2)nc2nc([C@H](Cc3cc(F)cc(F)c3)NC(=O)Cn3nc(C4CC4)c4c3C[C@@H]3C[C@H]43)n(-c3ccc(Cl)c4c(NS(C)(=O)=O)nn([C@H](C)CN5C[C@@H](C)O[C@@H](C)C5)c34)c(=O)c12` (relative stereo) [Example 730, N-[(1S)-1-[(3P)-3-{4-chloro-1-[(2R)-1-[(2R,6S)-2,6-dimethylmorpholin-4-yl]propan-2-yl]-3-methanesulfonamido-1H-indazol-7-yl}-5-methyl-4-oxo-7-(1,4,4-trifluorocyclohexyl)-3H,4H-pyrido[2,3-d]pyrimidin-2-yl]-2-(3,5-difluorophenyl)ethyl]-2-[(2R*,4R*)-9-cyclopropyl-7,8-diazatricyclo[4.3.0.0^2,^4]nona-1(6),8-dien-7-yl]acetamide], for which, in data set [1], the CC50 at 4 days is above 20 nM. Moreover, the concentration for a half-maximal effect (EC50) in data set [2] is 0.032 nM.
In the case of `Cc1cc(C2CCC(F)(F)CC2)nc2nc([C@H](Cc3cc(F)cc(F)c3)NC(=O)Cn3nc(C4CC4)c4c3C[C@@H]3C[C@H]43)n(-c3ccc(Cl)c4c(NS(C)(=O)=O)nn([C@H](C)CN5C[C@H](F)C[C@H](F)C5)c34)c(=O)c12` (relative stereo) [Example 732, N-[(1S)-1-[(3P)-3-{4-chloro-1-[(2R)-1-[(3R,5S)-3,5-difluoropiperidin-1-yl]propan-2-yl]-3-methanesulfonamido-1H-indazol-7-yl}-7-(4,4-difluorocyclohexyl)-5-methyl-4-oxo-3H,4H-pyrido[2,3-d]pyrimidin-2-yl]-2-(3,5-difluorophenyl)ethyl]-2-[(2R*,4R*)-9-cyclopropyl-7,8-diazatricyclo[4.3.0.0^2,^4]nona-1(6),8-dien-7-yl]acetamide], the CC50 at 4 days in data set [1] is above 20 nM. The concentration giving a half-maximal response (EC50) in data set [2] is 0.013 nM.
Turning to `Cc1cc(C2CCC(F)(F)CC2)nc2nc([C@H](Cc3cc(F)cc(F)c3)NC(=O)Cn3nc(C4CC4)c4c3C[C@@H]3C[C@H]43)n(-c3ccc(Cl)c4c(NS(C)(=O)=O)nn([C@H](C)CN5CC(C)(C)OC(C)(C)C5)c34)c(=O)c12` (relative stereo) [Example 734, N-[(1S)-1-[(3P)-3-{4-chloro-3-methanesulfonamido-1-[(2R)-1-(2,2,6,6-tetramethylmorpholin-4-yl)propan-2-yl]-1H-indazol-7-yl}-7-(4,4-difluorocyclohexyl)-5-methyl-4-oxo-3H,4H-pyrido[2,3-d]pyrimidin-2-yl]-2-(3,5-difluorophenyl)ethyl]-2-[(2R*,4R*)-9-cyclopropyl-7,8-diazatricyclo[4.3.0.0^2,^4]nona-1(6),8-dien-7-yl]acetamide], the CC50 at 4 days in data set [1] was above 20 nM. For the same compound, in data set [2], the EC50 came to 0.038 nM.
`Cc1cc(C2(F)CCC(F)(F)CC2)nc2nc([C@H](Cc3cc(F)cc(F)c3)NC(=O)Cn3nc(C4CC4)c4c3C[C@@H]3C[C@H]43)n(-c3ccc(Cl)c4c(NS(C)(=O)=O)nn(CCN5CCCC5=O)c34)c(=O)c12` (relative stereo) [Example 738, N-[(1S)-1-[(3P)-3-{4-chloro-3-methanesulfonamido-1-[2-(2-oxopyrrolidin-1-yl)ethyl]-1H-indazol-7-yl}-5-methyl-4-oxo-7-(1,4,4-trifluorocyclohexyl)-3H,4H-pyrido[2,3-d]pyrimidin-2-yl]-2-(3,5-difluorophenyl)ethyl]-2-[(2R*,4R*)-9-cyclopropyl-7,8-diazatricyclo[4.3.0.0^2,^4]nona-1(6),8-dien-7-yl]acetamide]: the CC50 at 4 days in data set [1] was above 20 nM. Moreover, the EC50 in data set [2] stood at 0.043 nM.
In the case of `Cc1cc(C2(F)CCC(F)(F)CC2)nc2nc([C@H](Cc3cc(F)cc(F)c3)NC(=O)Cn3nc(C4CC4)c4c3C[C@@H]3C[C@H]43)n(-c3ccc(Cl)c4c(NS(C)(=O)=O)nn(CCc5cccnc5)c34)c(=O)c12` (relative stereo) [Example 741, N-[(1S)-1-[(3P)-3-{4-chloro-3-methanesulfonamido-1-[2-(pyridin-3-yl)ethyl]-1H-indazol-7-yl}-5-methyl-4-oxo-7-(1,4,4-trifluorocyclohexyl)-3H,4H-pyrido[2,3-d]pyrimidin-2-yl]-2-(3,5-difluorophenyl)ethyl]-2-[(2R*,4R*)-9-cyclopropyl-7,8-diazatricyclo[4.3.0.0^2,^4]nona-1(6),8-dien-7-yl]acetamide], in data set [1], the CC50 at 4 days is above 20 nM. In addition, the EC50 in data set [2] stood at 0.04 nM.
Regarding `Cc1cc(C2(F)CCC(F)(F)CC2)nc2nc([C@H](Cc3cc(F)cc(F)c3)NC(=O)Cn3nc(C4CC4)c4c3C[C@@H]3C[C@H]43)n(-c3ccc(Cl)c4c(NS(C)(=O)=O)nn([C@H](C)C(=O)N5C[C@@H](C)O[C@@H](C)C5)c34)c(=O)c12` (relative stereo) [Example 744, N-[(1S)-1-[(3P)-3-{4-chloro-1-[(2R)-1-[(2R,6S)-2,6-dimethylmorpholin-4-yl]-1-oxopropan-2-yl]-3-methanesulfonamido-1H-indazol-7-yl}-5-methyl-4-oxo-7-(1,4,4-trifluorocyclohexyl)-3H,4H-pyrido[2,3-d]pyrimidin-2-yl]-2-(3,5-difluorophenyl)ethyl]-2-[(2R*,4R*)-9-cyclopropyl-7,8-diazatricyclo[4.3.0.0^2,^4]nona-1(6),8-dien-7-yl]acetamide], the CC50 at 4 days in data set [1] is above 20 nM. Moreover, the EC50 in data set [2] is 0.017 nM.
Consider `Cc1cc(C2(F)CCC(F)(F)CC2)nc2nc([C@H](Cc3cc(F)cc(F)c3)NC(=O)Cn3nc(C4CC4)c4c3C[C@@H]3C[C@H]43)n(-c3ccc(Cl)c4c(NS(C)(=O)=O)nn([C@@H](C)CN5C[C@@H](C)O[C@@H](C)C5)c34)c(=O)c12` (relative stereo) [Example 748, N-[(1S)-1-[(3P)-3-{4-chloro-1-[(2S)-1-[(2R,6S)-2,6-dimethylmorpholin-4-yl]propan-2-yl]-3-methanesulfonamido-1H-indazol-7-yl}-5-methyl-4-oxo-7-(1,4,4-trifluorocyclohexyl)-3H,4H-pyrido[2,3-d]pyrimidin-2-yl]-2-(3,5-difluorophenyl)ethyl]-2-[(2R*,4R*)-9-cyclopropyl-7,8-diazatricyclo[4.3.0.0^2,^4]nona-1(6),8-dien-7-yl]acetamide], for which the cytotoxic concentration (CC50) at 4 days in data set [1] is above 20 nM. In addition, in data set [2], the EC50 was 0.024 nM.
Take `Cc1cc(C2(F)CCC(F)(F)CC2)nc2nc([C@H](Cc3cc(F)cc(F)c3)NC(=O)Cn3nc(C4CC4)c4c3C[C@@H]3C[C@H]43)n(-c3ccc(Cl)c4c(NS(C)(=O)=O)nn([C@H](C)C(=O)N5CC(C)(C)OC(C)(C)C5)c34)c(=O)c12` (relative stereo) [Example 750, N-[(1S)-1-[(3P)-3-{4-chloro-3-methanesulfonamido-1-[(2R)-1-oxo-1-(2,2,6,6-tetramethylmorpholin-4-yl)propan-2-yl]-1H-indazol-7-yl}-5-methyl-4-oxo-7-(1,4,4-trifluorocyclohexyl)-3H,4H-pyrido[2,3-d]pyrimidin-2-yl]-2-(3,5-difluorophenyl)ethyl]-2-[(2R*,4R*)-9-cyclopropyl-7,8-diazatricyclo[4.3.0.0^2,^4]nona-1(6),8-dien-7-yl]acetamide]: in data set [1], the half-maximal cytotoxic concentration (CC50) at 4 days is above 20 nM. For the same compound, the EC50 in data set [2] was 0.028 nM.
In the case of `Cc1cc(C2(F)CCC(F)(F)CC2)nc2nc([C@H](Cc3cc(F)cc(F)c3)NC(=O)Cn3nc(C4CC4)c4c3C[C@@H]3C[C@H]43)n(-c3ccc(Cl)c4c(NS(C)(=O)=O)nn([C@@H](C)CN5C[C@H](F)C[C@H](F)C5)c34)c(=O)c12` (relative stereo) [Example 754, N-[(1S)-1-[(3P)-3-{4-chloro-1-[(2S)-1-[(3R,5S)-3,5-difluoropiperidin-1-yl]propan-2-yl]-3-methanesulfonamido-1H-indazol-7-yl}-5-methyl-4-oxo-7-(1,4,4-trifluorocyclohexyl)-3H,4H-pyrido[2,3-d]pyrimidin-2-yl]-2-(3,5-difluorophenyl)ethyl]-2-[(2R*,4R*)-9-cyclopropyl-7,8-diazatricyclo[4.3.0.0^2,^4]nona-1(6),8-dien-7-yl]acetamide], the 50% cytotoxic concentration (CC50) at 4 days in data set [1] was above 20 nM. Also, the EC50 in data set [2] came out at 0.075 nM.
The corresponding values for `CS(=O)(=O)Nc1nn(CCN2CCOC(C(F)F)C2)c2c(-n3c([C@H](Cc4cc(F)cc(F)c4)NC(=O)Cn4nc(C(F)F)c5c4C(F)(F)[C@@H]4C[C@H]54)nc4nc(C5CCC(F)(F)CC5)ccc4c3=O)ccc(Cl)c12` (stereo partly drawn) [Example 187, N-[(1S)-1-[(3P)-3-(4-chloro-1-{2-[2-(difluoromethyl)morpholin-4-yl]ethyl}-3-methanesulfonamido-1H-indazol-7-yl)-7-(4,4-difluorocyclohexyl)-4-oxo-3H,4H-pyrido[2,3-d]pyrimidin-2-yl]-2-(3,5-difluorophenyl)ethyl]-2-[(2S,4R)-9-(difluoromethyl)-5,5-difluoro-7,8-diazatricyclo[4.3.0.0^2,4]nona-1(6),8-dien-7-yl]acetamide] are above 50 nM and 0.032 nM.
On to `CC1(C)CN(CCn2nc(NS(C)(=O)=O)c3c(Cl)ccc(-n4c([C@H](Cc5cc(F)cc(F)c5)NC(=O)Cn5nc(C(F)F)c6c5C(F)(F)[C@@H]5C[C@H]65)nc5nc(C6CCC(F)(F)CC6)ccc5c4=O)c32)CC(C(F)(F)F)O1` (stereo partly drawn) [Example 189], for which the CC50 at 4 days in data set [1] was above 50 nM. Also, the concentration giving a half-maximal response (EC50) in data set [2] was 0.035 nM.

By CC50 is commonly meant the concentration giving 50% cytotoxicity. Usually EC50 stands for the concentration at which the effect is half-maximal.
